Laboratory results as given in patent US11279733B2, “Peptide antibiotics” (priority 2017, dated 2022).
In brackets after ≈: the same amount, converted by molar mass. Where two headings read alike, the source gives them in different places. Positions of bridges follow the written chain, without caps; N, C: chain ends. Non-standard residues stand in square brackets, D forms with d. Residues, ends and D or L forms follow the SMILES beside them. *: point of attachment. Decanoyl(3R-OH) = CCCCCCC[C@@H](O)CC(=O)*; Decanoyl = CCCCCCCCCC(=O)*; dDab = NCC[C@@H](N)C(=O)O; Dab = NCC[C@H](N)C(=O)O; Dap = NC[C@H](N)C(=O)O

Key:
[1] = test system: P. aeruginosa GN_105, PmxR; conditions: GN 105, PmxR
Experimental: (§1) Bacteria were either obtained from American Type Culture Collection (ATCC; Manassas, Va., USA) or independent academic clinical isolate collections, as listed in Table 18 below. Bacteria were cultured in Nutrient broth (NB; Bacto Laboratories, catalogue No. 234000) or Mueller Hinton broth (MHB; Bacto Laboratories, catalogue No. 211443) at 37° C. overnight with shaking (˜180 RPM). A sample of each culture was then diluted 50-fold in fresh MHB and incubated at 37° C. for 2-3 h with shaking (˜180 RPM). Compound stock solutions were prepared as 0.64 mg/mL or 2.56 mg/mL in water. The compounds, at twice the final desired concentration, were serially diluted 2-fold across the wells of 96-well plates (Polystyrene, Corning, catalogue No. 3370). Mid-log phase bacterial cultures (after 2-3 h incubation) were diluted to a final concentration of 1×10^6 colony forming units (CFU)/mL, and 50 μL was added to each well giving a final cell density of 5×10^5 and a compound concentration range of 32 μg/mL to 0.015 μg/mL (128-0.06 μg/mL against P. aeruginosa PA9704).

[2] = test system: K. pneumoniae ATCC 700603, MDR; conditions: ATCC 700603
Experimental: as §1

A. baumannii GN_093 PmxR = conditions: GN 093 PmxR
Experimental: as §1

[3] = test system: S. aureus ATCC 25923, MSSA; conditions: ATCC 25923
Experimental: as §1

P. aeruginosa ATCC 27853 = conditions: ATCC 27853
Experimental: as §1

E. coli ATCC 25922 = conditions: ATCC 25922
Experimental: as §1

A. baumannii ATCC 19606 = conditions: ATCC 19606
Experimental: as §1

[4] = test system: K. pneumoniae GN_106, PmxR; conditions: GN 106, PmxR
Experimental: as §1

[5] = test system: P. aeruginosa GN_043, PmxR
Experimental: as §1

K. pneumoniae ATCC 13883 = conditions: ATCC 13883
Experimental: as §1

[6] = test system: K. pneumoniae GN_102 PmxR; conditions: GN 102 PmxR
Experimental: as §1

[7] = test system: K. pneumoniae ATCC BAA-2146, NDM-1 pos; conditions: ATCC BAA-2146
Experimental: as §1

Row | Compound | MIC P. aeruginosa GN_105, PmxR [1] [µg/mL] | MIC, P. aeruginosa PA9704, PmxR [1] [µg/mL] | MIC K. pneumoniae ATCC 700603, MDR [2] [µg/mL] | MIC, K. pneumoniae ATCC 700603, MDR [2] [µg/mL] | MIC A. baumannii GN_093 PmxR (A. baumannii GN_093 PmxR) [µg/mL] | MIC, A. baumannii Cl Ptyela 10073 4512:2, PmxR (A. baumannii GN_093 PmxR) [µg/mL] | MIC S. aureus ATCC 25923, MSSA [3] [µg/mL] | MIC, S. Aureus ATCC 25923, MSSA [3] [µg/mL] | MIC P. aeruginosa ATCC 27853 (P. aeruginosa ATCC 27853) [µg/mL] | MIC, P. aeruginosa ATCC 27853 (P. aeruginosa ATCC 27853) [µg/mL] | MIC E. coli ATCC 25922 (E. coli ATCC 25922) [µg/mL] | MIC, E. coli ATCC 25922 (E. coli ATCC 25922) [µg/mL] | MIC A. baumannii ATCC 19606 (A. baumannii ATCC 19606) [µg/mL] | MIC, A. baumannii ATCC 19606 (A. baumannii ATCC 19606) [µg/mL] | MIC K. pneumoniae GN_106, PmxR [4] [µg/mL] | MIC K. pneumoniae ATCC 13883 (K. pneumoniae ATCC 13883) [µg/mL] | MIC, K. pneumoniae ATCC 13883 (K. pneumoniae ATCC 13883) [µg/mL] | MIC K. pneumoniae GN_102 PmxR [6] [µg/mL] | MIC K. pneumoniae ATCC BAA-2146, NDM-1 pos [7] [µg/mL] | MIC, K. pneumoniae ATCC BAA-2146, NDM-1 pos [7] [µg/mL] | other results
1 | CCCCCCC[C@@H](O)CC(=O)N[C@H](CCN)C(=O)N[C@H]1CCNC(=O)[C@H](CC(C)C)NC(=O)[C@H](CCN)NC(=O)[C@H](CCN)NC(=O)[C@H](CC(C)C)NC(=O)[C@@H](Cc2ccccc2)NC(=O)[C@H](CCN)NC1=O [Octapeptin C4 (631), 3(R)OH-nC9CO-D-Dab-cyc[L-Dab-L-Dab-D-Phe-L-Leu-L-Dab-L-Dab-L-Leu], reference compound] ({Decanoyl(3R-OH)}-[dDab][Dab][Dab][dF]L[Dab][Dab]L; lactam 2-C) | 2 (≈ 1.92 µM) | 2 (≈ 1.92 µM) | 8 (≈ 7.66 µM) | 8 (≈ 7.66 µM) | 4 (≈ 3.83 µM) | 4 (≈ 3.83 µM) | 16 (≈ 15.3 µM) | 16 (≈ 15.3 µM) | 2 (≈ 1.92 µM) | 2 (≈ 1.92 µM) | 4 (≈ 3.83 µM) | 4 (≈ 3.83 µM) | 4 (≈ 3.83 µM) | 4 (≈ 3.83 µM) | 4 (≈ 3.83 µM) | 8 (≈ 7.66 µM) | 8 (≈ 7.66 µM) | 2 (≈ 1.92 µM) | 8 (≈ 7.66 µM) | 8 (≈ 7.66 µM) | MIC P. aeruginosa PA9704, PmxR [1]: 2 µg/mL (≈ 1.92 µM); MIC A. baumannii Cl Ptyela 10073 4512:2, PmxR (A. baumannii GN_093 PmxR): 4 µg/mL (≈ 3.83 µM); MIC K. pneumoniae Cl 183-16357-20352, PmxR [4]: 4 µg/mL (≈ 3.83 µM); MIC, K. pneumoniae Cl 138-16347-20362, PmxR [4]: 4 µg/mL (≈ 3.83 µM); MIC P. aeruginosa GN_043, PmxR [5]: 2 µg/mL (≈ 1.92 µM); MIC P. aeruginosa GN_043, PmxR ([5]; P. aeruginosa GN_043, PmxR): 2 µg/mL (≈ 1.92 µM); MIC, P. aeruginosa FADDI-PA070, PmxR ([5]; Table 5, polymyxin-resistant): 2 µg/mL (≈ 1.92 µM); MIC P. aeruginosa GN_043, PmxR ([5]; polymyxin-resistant): 2 µg/mL (≈ 1.92 µM); MIC, P. aeruginosa FADDI-PA070, PmxR ([5]; strain name as in Table 11): 2 µg/mL (≈ 1.92 µM); MIC K. pneumoniae Cl Koprana 10065 0661:1 PmxR [6]: 2 µg/mL (≈ 1.92 µM); MIC, K. pneumoniae Cl Koprana 10065 0661:1, PmxR [6]: 2 µg/mL (≈ 1.92 µM)
2 | CCCCCCC[C@@H](O)CC(=O)N[C@H](CCN)C(=O)N[C@H]1CCNC(=O)[C@H](CC(C)C)NC(=O)[C@H](CCN)NC(=O)[C@H](CCN)NC(=O)[C@H](CC(C)C)NC(=O)[C@@H](Cc2ccccc2)NC(=O)[C@H](CN)NC1=O [compound 993, 3(R)OH-nC9CO-D-Dab-cyc[L-Dab-L-Dap-D-Phe-L-Leu-L-Dab-L-Dab-L-Leu]] ({Decanoyl(3R-OH)}-[dDab][Dab][Dap][dF]L[Dab][Dab]L; lactam 2-C) | – | 2 (≈ 1.94 µM) | – | 4 (≈ 3.88 µM) | – | 16 (≈ 15.5 µM) | – | 8 (≈ 7.76 µM) | – | 2 (≈ 1.94 µM) | – | 2 (≈ 1.94 µM) | – | 8 (≈ 7.76 µM) | – | – | 4 (≈ 3.88 µM) | – | – | 8 (≈ 7.76 µM) | MIC, K. pneumoniae Cl 138-16347-20362, PmxR [4]: 2 µg/mL (≈ 1.94 µM); MIC, P. aeruginosa FADDI-PA070, PmxR ([5]; Table 5, polymyxin-resistant): 2 µg/mL (≈ 1.94 µM); MIC, K. pneumoniae Cl Koprana 10065 0661:1, PmxR [6]: 2 µg/mL (≈ 1.94 µM)
3 | CCCCCCC[C@@H](O)CC(=O)N[C@H](CCN)C(=O)N[C@H]1CCNC(=O)[C@H](CC(C)C)NC(=O)[C@H](C)NC(=O)[C@H](CCN)NC(=O)[C@H](CC(C)C)NC(=O)[C@@H](Cc2ccccc2)NC(=O)[C@H](CCN)NC1=O [compound 4944, 3(R)OH-nC9CO-D-Dab-cyc[L-Dab-L-Dab-D-Phe-L-Leu-L-Dab-L-Ala-L-Leu]] ({Decanoyl(3R-OH)}-[dDab][Dab][Dab][dF]L[Dab]AL; lactam 2-C) | 16 (≈ 15.8 µM) | – | 16 (≈ 15.8 µM) | – | >32 | – | >32 | – | 8 (≈ 7.88 µM) | – | 16 (≈ 15.8 µM) | – | 32 (≈ 31.5 µM) | – | 32 (≈ 31.5 µM) | 16 (≈ 15.8 µM) | – | 8 (≈ 7.88 µM) | 8 (≈ 7.88 µM) | – | MIC P. aeruginosa GN_043, PmxR ([5]; polymyxin-resistant): 4 µg/mL (≈ 3.94 µM)
4 | CCCCCCC[C@@H](O)CC(=O)N[C@H](CCN)C(=O)N[C@H]1CCNC(=O)[C@H](CC(C)C)NC(=O)[C@H](CCN)NC(=O)[C@H](CCN)NC(=O)[C@H](Cc2ccccc2)NC(=O)[C@@H](Cc2ccccc2)NC(=O)[C@H](CCN)NC1=O [compound 5003, 3(R)OH-nC9CO-D-Dab-cyc[L-Dab-L-Dab-D-Phe-L-Phe-L-Dab-L-Dab-L-Leu]] ({Decanoyl(3R-OH)}-[dDab][Dab][Dab][dF]F[Dab][Dab]L; lactam 2-C) | 2 (≈ 1.85 µM) | – | 16 (≈ 14.8 µM) | – | 8 (≈ 7.42 µM) | – | 8 (≈ 7.42 µM) | – | 2 (≈ 1.85 µM) | – | 8 (≈ 7.42 µM) | – | 16 (≈ 14.8 µM) | – | 4 (≈ 3.71 µM) | 4 (≈ 3.71 µM) | – | 4 (≈ 3.71 µM) | 16 (≈ 14.8 µM) | – | MIC P. aeruginosa GN_043, PmxR ([5]; P. aeruginosa GN_043, PmxR): 2 µg/mL (≈ 1.85 µM)
5 | CCCCCCCCCC(=O)N[C@@H](CCN)C(=O)N[C@H]1CCNC(=O)[C@H](CC(C)C)NC(=O)[C@H](CCN)NC(=O)[C@H](CCN)NC(=O)[C@H](CC(C)C)NC(=O)[C@@H](Cc2ccccc2)NC(=O)[C@H](CCN)NC1=O [compound 5568, nC9CO-L-Dab-cyc[L-Dab-L-Dab-D-Phe-L-Leu-L-Dab-L-Dab-L-Leu]] (Decanoyl-[Dab][Dab][Dab][dF]L[Dab][Dab]L; lactam 2-C) | 4 (≈ 3.89 µM) | – | – | 8 (≈ 7.78 µM) | >32 | – | – | – | – | 4 (≈ 3.89 µM) | – | 8 (≈ 7.78 µM) | – | 16 (≈ 15.6 µM) | 16 (≈ 15.6 µM) | – | 4 (≈ 3.89 µM) | – | – | 8 (≈ 7.78 µM) | MIC, S. aureus ATCC 25923, MSSA [3]: 8 µg/mL (≈ 7.78 µM); MIC P. aeruginosa GN_043, PmxR ([5]; Table 6, polymyxin-resistant): 4 µg/mL (≈ 3.89 µM)
6 | CC(=O)N[C@H](CCN)C(=O)N[C@H]1CCNC(=O)[C@H](Cc2c[nH]c3ccccc23)NC(=O)[C@H](CCN)NC(=O)[C@H](CCN)NC(=O)[C@H](CC(C)C)NC(=O)[C@@H](Cc2ccccc2)NC(=O)[C@H](CCN)NC1=O [compound 8981, Ac-D-Dab-cyc[L-Dab-L-Dab-D-Phe-L-Leu-L-Dab-L-Dab-L-Trp]] (Ac-[dDab][Dab][Dab][dF]L[Dab][Dab]W; lactam 2-C) | >32 | – | 16 (≈ 16.2 µM) | – | 32 (≈ 32.3 µM) | – | >32 | – | 4 (≈ 4.04 µM) | – | 32 (≈ 32.3 µM) | – | >32 | – | >32 | >32 | – | >32 | 16 (≈ 16.2 µM) | – | –
